Data as given in patent US20050043331A1, “Substituted 3-(2,5-disubstituted)pyridyl-4-aryl pyrroles for treating inflammatory diseases” (priority 2002, published 2005).
Where two headings read alike, the source gives them in different places.

Tests used:
TNF-α [1] = test: In-vitro whole cell assay for TNF-α inhibition (LPS-stimulated PBMC, ELISA); assay type: cell-based; settings: TNF-α by ELISA
Protocol: Freshly obtained venous blood was anticoagulated with heparin, diluted with an equal volume of phosphate buffered saline (“PBS”) and placed in a sterile tube or other container. Aliquots (30 mL) of this mixture were transferred to centrifuge tubes, which were underlaid with Ficoll-Hypaque (15 mL). The prepared tubes were centrifuged at 400×g, without braking, for 30 min at room temperature. Approximately ½ to ⅔ of the platelet layer above the mononuclear cell band was removed with a pipette. The majority of the mononuclear cell layer was carefully removed using a pipette and these PBMC's were diluted with PBS and spun at 600×g for 15 min. The resulting PBMC's were washed with another portion of PBS and spun at 400×g for 10 min at room temperature. The recovered pellets were diluted in low endotoxin RPMI/1% FCS culture medium, and gave a cell concentration of 0.5-2.0×10^6 PMBC/ mL. A small volume of the suspension was removed for counting on a hemocytometer and the remaining preparation was centrifuged at 200×g for 15 min at room temperature. The recovered pelleted PMBC's were resuspended in RPMI/1% FCS to a concentration of 1.67×10^6/mL.
To run the assay, the PBMC suspension (180 μL) was transferred to duplicate wells of a 96-well flat-bottom microtiter plate and incubated for 1 h at 37° C. A solution of test compound (10 μL: prepared at 20× the desired final concentration) was added to each well and the plate was incubated for 1 h at 37° C. A solution (10 μL) of LPS in RPMI/1% FCS (200 ng/mL) was added and the wells were incubated overnight at 37° C. The supernate (100 μL) was removed from each well and diluted with RPMI/1% FCS (400 μL). The samples were analyzed for TNF-α using a commercial ELISA kit (Genzyme).

TNF-α [2] = test: In vivo rodent assay for inhibition of LPS-induced TNF-α production; design: species or system Mice (BALB/cJ females); settings: Mus musculus, po, 10 mg/kg oral
Protocol: Mice (BALB/cJ females, Jackson Laboratories) or rats (Lewis males, Charles River) were fasted for 30 min. The animals were dosed orally on a mg/kg basis at a range of times prior to being injected intraperitoneally with LPS at 1 mg/kg and returned to their cages for 1 h. Animals were anesthetized by CO2, exsanguinated by cardiac puncture and whole blood collected (0.1-0.7 mL). The blood was allowed to clot and serum was transferred to a centrifuge tube. This sample was centrifuged, and serum was collected, aliquoted and frozen at −80° C. Samples were tested by commercial ELISA's for TNF-α (Endogen for mouse TNF-α and Biosource for rat TNF-α).

[3] = 0.5 h, 0.5 h, read-out: Mouse 10 mg/kg % inhib 0.5 h
[4] = 2 h, 2 h, read-out: Mouse 10 mg/kg % inhib 2 h

Row | Compound | IC50 (TNF-α [1]) | inhibition in vivo at 10 mg/kg (TNF-α [2]; [3]) | inhibition in vivo at 10 mg/kg (TNF-α [2]; [4])
1 | COC(=O)c1c(-c2ccc(F)cc2)c(-c2ccncc2)c(N2CCC(N)C2)n1C (stereo not drawn) [Cpd 113] | 237 nM | 25% | 
2 | COC(=O)CN1CCN(c2c(-c3ccncc3)c(-c3ccc(F)cc3)c(C(=O)OC)n2C)CC1 [Cpd 181] | 5 nM |  | 26%
3 | COCC#Cc1c(-c2ccc(F)cc2)c(-c2ccncc2)c(C(=O)OC)n1C [Cpd 172] | 443 nM | -5% | 
4 | Cn1c(Br)c(-c2ccncc2)c(-c2ccc(F)cc2)c1C#N [Cpd 170] | 625 nM | 22% | 
5 | Cn1c(N2CCCC2)c(-c2ccncc2)c(-c2ccc(F)cc2)c1C(C)(C)O [Cpd 111] | 192 nM | 37.7% | 
6 | COC(=O)c1c(-c2ccc(F)cc2)c(-c2ccncc2)c(NC2CCNCC2)n1C [Cpd 131] | 315 nM | 7% | 
7 | COC(=O)C1CCn2c(NCCN3CCOCC3)c(-c3ccncc3)c(-c3ccc(F)cc3)c2C1=O (stereo not drawn) [Cpd 23, 1-(4-Fluorophenyl)-5,6,7,8-tetrahydro-3-[[2-(4-morpholinyl)ethyl]amino]-8-oxo-2-(4-pyridinyl)-7-indolizinecarboxylic acid methyl ester] | 77 nM | 71% | 
8 | Cn1cc(-c2ccncc2)c(-c2ccc(F)cc2)c1C(=O)NCC(=O)c1ccccc1 [Cpd 34, 3-(4-Fluorophenyl)-1-methyl-N-(2-oxo-2-phenylethyl)-4-(4-pyridinyl)-1H-pyrrole-2-carboxamide] | 157 nM | 81% | 37%
9 | O=C1CCn2cc(-c3ccncc3)c(-c3ccc(F)cc3)c21 [Cpd 22, 7-(4-Fluorophenyl)-2,3-dihydro-6-(4-pyridinyl)-1H-pyrrolizin-1-one] | 138 nM | 63% | -3%
10 | COC(=O)c1c(-c2ccc(F)cc2)c(-c2ccncc2)c(N2CCN(CC3CC3)CC2)n1C [Cpd 128] | 269 nM | 66.3% | 
11 | COC(=O)c1c(-c2ccc(F)cc2)c(-c2ccncc2)c(NCc2ccc(OC)cc2)n1C [Cpd 160] | 42 nM | 79% | -46%
12 | COC(=O)c1c(-c2ccc(F)cc2)c(-c2ccncc2)c(-c2cccc(NC(C)=O)c2)n1C [Cpd 144] | 2 nM | 59% | 
13 | CON(C)C(=O)c1c(-c2ccc(F)cc2)c(-c2ccncc2)c(N2CCN(C(=O)OC(C)(C)C)CC2)n1C [Cpd 145] | 72 nM | 45% | 
14 | COC(=O)c1c(-c2ccncc2)c(-c2ccc(F)cc2)c(NCCc2ccccc2)n1C [Cpd 152] | 1020 nM | 58% | 
15 | CCn1c(C(=O)OC)c(-c2ccc(F)cc2)c(-c2ccncc2)c1N(C)CCN1CCOCC1 [Cpd 163] | 105 nM | 66% | 13%
16 | COC(=O)c1c(-c2ccc(F)cc2)c(-c2ccncc2)c(C2=CCNCC2)n1C [Cpd 7, 3-(4-Fluorophenyl)-1-methyl-4-(4-pyridinyl)-5-(1,2,3,6-tetrahydro-4-pyridinyl)-1H-pyrrole-2-carboxylic acid methyl ester] | 72 nM | 96% | 
17 | OCc1[nH]cc(-c2ccc(F)cc2)c1-c1ccncc1 [Cpd 26, 4-(4-Fluorophenyl)-3-(4-pyridinyl)-1H-pyrrole-2-methanol] | 101 nM | -72% | 
18 | COC(=O)c1c(-c2ccncc2)c(-c2ccc(F)cc2)c(C#CCCO)n1C [Cpd 167] | 894 nM | 30% | 

Row | Compound | IC50 (TNF-α [1]) | inhibition in vivo at 10 mg/kg (TNF-α [2]; [3]) | inhibition in vivo at 10 mg/kg (TNF-α [2]; [4])
19 | COC(=O)c1c(-c2ccc(F)cc2)c(-c2ccncc2)c2n1CCC2C (stereo not drawn) [Cpd 47, 6-(4-Fluorophenyl)-2,3-dihydro-1-methyl-7-(4-pyridinyl)-1H-pyrrolizine-5-carboxylic acid methyl ester] | 208 nM | 67% | 52%
20 | COC(=O)c1c(-c2ccc(F)cc2)c(-c2ccncc2)c(N2CCN(S(C)(=O)=O)CC2)n1C [Cpd 12, 3-(4-Fluorophenyl)-1-methyl-5-[4-(methylsulfonyl)-1-piperazinyl]-4-(4-pyridinyl)-1H-pyrrole-2-carboxylic acid methyl ester] | 5860 nM | -29% | 
21 | COC(=O)c1c(-c2ccc(F)cc2)c(-c2ccncc2)c(NCc2cccc(OC)c2)n1C [Cpd 177] | 407 nM |  | 63%
22 | CCNC(=O)c1[nH]cc(-c2ccc(F)cc2)c1-c1ccncc1 [Cpd 32, N-Ethyl-4-(4-fluorophenyl)-3-(4-pyridinyl)-1H-pyrrole-2-carboxamide] | 209 nM | -24% | 
23 | CCN1CCN(c2c(-c3ccncc3)c(-c3ccc(F)cc3)c(C(=O)OC)n2C)CC1 [Cpd 124] | 135 nM | 67.8% | 
24 | CCOC(=O)c1c(-c2ccc(F)cc2)c(-c2ccncc2)c(CCCOCc2ccccc2)n1C [Cpd 155] | 248 nM | 51% | 
25 | CCCC1=C(c2ccnc(N[C@@H](C)c3ccccc3)n2)C(c2ccc(F)cc2)=CC1CCN1CCOCC1 (stereo partly drawn) [Cpd 55] | 4 nM | -35% | 
26 | COC(=O)c1c(-c2ccc(F)cc2)c(-c2ccncc2)c(NCCN2CCCC2)n1CCN1CCOCC1 [Cpd 156] | 969 nM | 23% | 
27 | COC(=O)c1c(-c2ccc(F)cc2)c(-c2ccncc2)c(N2CCN(C(C)=O)CC2)n1C [Cpd 116] | 1530 nM | 57% | 
28 | COC(=O)c1c(-c2ccncc2)c(-c2ccc(F)cc2)c(C#CCN2CCOCC2)n1C [Cpd 44, 4-(4-Fluorophenyl)-1-methyl-5-[3-(4-morpholinyl)-1-propynyl]-3-(4-pyridinyl)-1H-pyrrole-2-carboxylic acid methyl ester] | 788 nM |  | 47%
29 | O=C1CCCn2c(NCCN3CCOCC3)c(-c3ccncc3)c(-c3ccc(F)cc3)c21 [Cpd 24, 1-(4-Fluorophenyl)-6,7-dihydro-3-[[2-(4-morpholinyl)ethyl]amino]-2-(4-pyridinyl)-8(5H)-indolizinone] | 2560 nM | 51% | 
30 | COC(=O)c1c(-c2ccc(F)cc2)c(-c2ccncc2)c(N2CCNCC2)n1C [Cpd 8, 3-(4-Fluorophenyl)-1-methyl-5-(1-piperazinyl)-4-(4-pyridinyl)-1H-pyrrole-2-carboxylic acid methyl ester] | 33 nM | 73% | 
31 | CCn1cc(-c2ccncc2)c(-c2ccc(F)cc2)c1CO [Cpd 143] | 70 nM | 48% | 
32 | CCOC(=O)c1c(-c2ccc(F)cc2)c(-c2ccncc2)c(CCCN2CCOCC2)n1C [Cpd 19, 3-(4-Fluorophenyl)-1-methyl-5-[3-(4-morpholinyl)propyl]-4-(4-pyridinyl)-1H-pyrrole-2-carboxylic acid ethyl ester] | 756 nM | 34% | 
33 | O=C1CCn2c(Br)c(-c3ccncc3)c(-c3ccc(F)cc3)c21 [Cpd 129] | 819 nM | 31% | 
34 | Cn1cc(-c2ccncc2)c(-c2ccc(F)cc2)c1-c1cnco1 [Cpd 41, 4-[4-(4-Fluorophenyl)-1-methyl-5-(5-oxazolyl)-1H-pyrrol-3-yl]pyridine] | 59 nM | 53% | 
35 | COC(=O)c1c(-c2ccc(F)cc2)c(-c2ccncc2)cn1C(=O)OC [Cpd 139] | 23 nM | -22% | 
